Source: US5464617A, “β-lactam compounds” (Hoffmann-La Roche Inc., priority 1994, dated 1995)
≈ marks a conversion by molar mass, not a printed value. Where a name gives a salt, the structure may show the parent alone.

Key:
[1] = test system: E. coli 1346; test: Antibacterial activity of the products per se, serial dilution method in liquid medium (Test E); type: cell-based; conditions: product per se; for MIC E. coli 1346 (E): test E
From the text: The antibacterial activity of the products per se is illustrated on the basis of Table 3 hereinafter, the minimum inhibitory concentration […] in vitro against E. coli 1346 being determined using the serial dilution method in liquid medium: […]

[2] = test system: Citrobacter freundii 1982; test: MIC in vitro of a 1:4 combination of ceftriaxone with a compound of formula I (Test D); type: cell-based; conditions: for MIC C. freundii 1982 (D): test D
Description: The minimum inhibitory concentration in vitro ([…]) of a 1:4 combination of ceftriaxone with a compound of formula I against Citrobacter freundii 1982 was measured and compiled in Table 2 hereinafter.

[3] = Table 4, 1:4 combination of ceftriaxone with the compound

Row | Structure (SMILES) | MIC E. coli 1346 (E) ([1]; Table 4) | MIC C. freundii 1982 (D) [2, 3] | further results
1 | CNC(=O)Cn1nnnc1SCC1=C(C(=O)O)N2C(=O)[C@@H]3[C@H]2[C@H](C1)CN3C(=O)C(F)(F)F [74(b), (1aS,3aR,6bR)-5-(1-Methylcarbamoylmethyl-1H-tetrazol-1-ylsulphanylmethyl)-1-oxo-2-trifluoroacetyl-1a,2,3,3a,4,6b-hexahydro-1H-2,6a-diazacyclobut[cd]indene-6-carboxylic acid sodium salt] | 1 µg/mL | 1 µg/mL | –
2 | Cc1nnc(SCC2=C(C(=O)O)N3C(=O)[C@@H]4[C@H]3[C@@H](CN4C(=O)Nc3ccc(O)cc3)S2)s1 [41(c), (1aS,3aR,6bS)-2-(4-Hydroxy-phenylcarbamoyl)-5-(5-methyl-1,3,4-thiadiazol-2-ylsulphanylmethyl)-1-oxo-4-thia-1,1a,2,3,3a,6b-hexahydro-2,6a-diazacyclobut[cd]indene-6-carboxylic acid sodium salt] | > 32 µg/mL | 1 µg/mL | –
3 | Cn1nnnc1SC1=C(C(=O)O)N2C(=O)[C@@H]3[C@H]2[C@H](C1)CN3C(=O)NCc1ccc(O)c(O)c1 [3(e), (1aS,3aR,6bR)-2-(3,4-Dihydroxy-benzylcarbamoyl)-5-(1-methyl-1H-tetrazol-5-ylsulphanyl)-1-oxo-1a,2,3,3a,4,6b-hexahydro-1H-2,6a-diazacyclobut[cd]indene-6-carboxylic acid salt] | – | – | MIC E. coli 1346 ([1]; Table 3, liquid medium): 32 µg/mL; MIC C. freundii 1982 ([2]; Table 2, 1:4 combination of ceftriaxone with the compound): 2 µg/mL
4 | C=CCN1C[C@H]2OC(CSc3nnnn3C)=C(C(=O)O)N3C(=O)[C@@H]1[C@@H]23 [Example 30, (1aS,3aR,6bS)-2-Allyl-5-(1-methyl-1H-tetrazol-5-ylsulphanylmethyl)-1-oxo-4-oxa-1,1a,2,3,3a,6b-hexahydro-2,6a-diazacyclobut[cd]indene-6-carboxylic acid sodium salt] | 8 µg/mL | 1 µg/mL | –
5 | Cn1nnnc1SCC1=C(C(=O)O)N2C(=O)[C@H]3NC[C@@H](O1)[C@H]32 [Example 29(e), (1aS,3aR,6bS)-5-(1-Methyl-1H-tetrazol-5-ylsulphanylmethyl)-1-oxo-1,1a,2,3,3a,6b-hexahydro-4-oxa-2,6a-diazacyclobut[cd]indene-6-carboxylic acid sodium salt] | 1 µg/mL | 0.5 µg/mL | –
6 | Cn1nnnc1SCC1=C(C(=O)O)N2C(=O)[C@@H]3[C@H]2[C@H](C1)CN3S(C)(=O)=O [Example 19(e), (1aS,3aR,6bR)-2-Methylsulphonyl-5-(1-methyl-1H-tetrazol-5-ylsulphanylmethyl)-1-oxo-1a,2,3,3a,4,6b-hexahydro-1H-2,6a-diazacyclobut[cd]indene-6-carboxylic acid sodium salt] | – | – | MIC E. coli 1346 (E) ([1]; Table 5, particularly preferred products): 1 µg/mL; MIC C. freundii 1982 (D) ([2]; Table 5, particularly preferred products, 1:4 combination with ceftriaxone): 0.25 µg/mL
7 | Cn1nnnc1SCC1=C(C(=O)O)N2C(=O)[C@@H]3[C@H]2[C@H](C1)CN3C(=O)CC#N [Example 19(d), (1aS,3aR,6bR)-2-Cyanoacetyl-5-(1-methyl-1H-tetrazol-5-ylsulphanylmethyl)-1-oxo-1a,2,3,3a,4,6b-hexahydro-1H-2,6a-diazacyclobut[cd]indene-6-carboxylic acid sodium salt] | 2 µg/mL | 0.25 µg/mL | –
8 | Nc1nnc(SCC2=C(C(=O)O)N3C(=O)[C@H]4NC[C@@H](S2)[C@H]43)s1 [40(e), (1aS,3aR,6bS)-5-(5-Amino-1,3,4-thiadiazol-2-ylsulphanylmethyl)-1-oxo-4-thia-1,1a,2,3,3a,6b-hexahydro-2,6a-diazacyclobut[cd]indene-6-carboxylic acid] | 32 µg/mL (≈ 89.5 µM) | 1 µg/mL | –
9 | CC(C)(C)OC(=O)CCNC(=O)N1C[C@H]2CC(C[n+]3ccccc3)=C(C(=O)[O-])N3C(=O)[C@@H]1[C@@H]23 [23(f), (1aS,3aR,6bR)-2-(2-t-Butoxycarbonyl-ethylcarbamoyl)-1-oxo-5-(pyridin-1-yliomethyl)-1a,2,3,3a,4,6b-hexahydro-1H-2,6a-diazacyclobut[cd]indene-6-carboxylate] | > 32 µg/mL | 4 µg/mL | –
10 | Cn1nc[n+](C)c1CSC1=C(C(=O)[O-])N2C(=O)[C@@H]3[C@H]2[C@H](C1)CN3C(=O)Nc1ccc(O)cc1 [3(q), (1aS,3aR,6bR)-5-[(1,4-Dimethyl-1H-1,2,4-triazol-5-ylio)methylsulphanyl]-2-(4-hydroxy-phenylcarbamoyl)-1-oxo-1a,2,3,3a,4,6b-hexahydro-1H-2,6a-diazacyclobut[cd]indene-6-carboxylate] | > 32 µg/mL | 2 µg/mL | –
11 | CC(=O)N1C[C@H]2CC(SCc3n(C)nc[n+]3C)=C(C(=O)[O-])N3C(=O)[C@@H]1[C@@H]23 [3(ao), (1aS,3aR,6bR)-2-Acetyl-5-[(1,4-dimethyl-1H-1,2,4-triazol-5-ylio)-methylsulphanyl]-1-oxo-1a,2,3,3a,4,6b-hexahydro-1H-2,6a-diazacyclobut[cd]indene-6-carboxylate] | > 32 µg/mL | 8 µg/mL | –
12 | CC(=O)OCC1=C(C(=O)O)N2C(=O)[C@@H]3[C@H]2[C@H](C1)CN3C(C)=O [25(c), (1aS,3aR,6bR)-5-Acetoxymethyl-2-acetyl-1-oxo-1a,2,3,3a,4,6b-hexahydro-1H-2,6a-diazacyclobut[cd]indene-6-carboxylic acid sodium salt] | 4 µg/mL | 1 µg/mL | –
13 | N#C/C=C/C1=C(C(=O)O)N2C(=O)[C@@H]3[C@H]2[C@H](C1)CN3C(=O)Nc1ccc(O)cc1 [49(b), (E)-(1aS,3aR,6bR)-5-(2-Cyanovinyl)-2-(4-hydroxyphenylcarbamoyl)-1-oxo-1a,2,3,3a,4,6b-hexahydro-1H-2,6a-diazacyclobut[cd]indene-6-carboxylic acid sodium salt] | 4 µg/mL | 1 µg/mL | –
14 | NC(=O)OCC1=C(C(=O)O)N2C(=O)[C@@H]3[C@H]2[C@H](C1)CN3C(=O)NCc1cccs1 [27(f), (1aS,3aR,6bR)-5-Carbamoyloxymethyl-2-(thiophen-2-ylmethylcarbamoyl)-1-oxo-1a,2,3,3a,4,6b-hexahydro-1H-2,6a-diaza-cyclobut[cd]indene-6-carboxylic acid sodium salt] | ≤ 0,25 μg/ml | 0.25 µg/mL | –
15 | CS(=O)(=O)NCC1=C(C(=O)O)N2C(=O)[C@@H]3[C@H]2[C@H](C1)CN3C(=O)C(F)(F)F [88(b), (1aS,3aR,6bR)-5-Methylsulphonylaminomethyl-1-oxo-2-trifluoroacetyl-1a,2,3,3a,4,6b-hexahydro-1H-2,6a-diazacyclobut[cd]indene-6-carboxylic acid sodium salt] | 4 µg/mL | 2 µg/mL | –
16 | Cn1nnnc1SCC1=C(C(=O)O)N2C(=O)[C@@H]3[C@H]2[C@H](C1)CN3C(=O)C(F)(F)F [Example 19(c), (1aS,3aR,6bR)-5-(1-Methyl-1H-tetrazol-5-ylsulphanylmethyl)-1-oxo-2-trifluoracetyl-1a,2,3,3a,4,6b-hexahydro-1H-2,6a-diazacyclobut[cd]indene-6-carboxylic acid sodium salt] | 2 µg/mL | 0.5 µg/mL | –
17 | O=C(O)C1=C(CSc2ccncc2)S[C@@H]2CN[C@@H]3C(=O)N1[C@@H]32 [40(f), (1aS,3aR,6bS)-1-Oxo-5-(pyridin-4-ylsulphanylmethyl)-4-thia-1,1a,2,3,3a,6b-hexahydro-2,6a-diazacyclobut[cd]indene-6-carboxylic acid] | 32 µg/mL (≈ 95.4 µM) | 2 µg/mL | –
18 | CC(=O)N1C[C@H]2CC(CSc3nc(-c4cccnc4)cs3)=C(C(=O)O)N3C(=O)[C@@H]1[C@@H]23 [67(a), (1aS,3aR,6bR)-2-Acetyl-1-oxo-5-(4-pyridin-3-yl-thiazol-2-ylsulphanylmethyl)-1a,2,3,3a,4,6b-hexahydro-1H-2,6a-diazacyclobut[cd]indene-6-carboxylic acid sodium salt] | 0.5 µg/mL | 8 µg/mL | –
19 | NC(=O)OCC1=C(C(=O)O)N2C(=O)[C@@H]3[C@H]2[C@H](C1)CN3C(=O)CSc1nnc(N)s1 [58(f), (1aS,3aR,6bR)-2-(5-Amino-1,3,4-thiadiazol-2-ylsulphanylacetyl)-5-carbamoyloxymethyl-1-oxo-1a,2,3,3a,4,6b-hexahydro-1H-2,6a-diazacyclobut[cd]indene-6-carboxylic acid sodium salt] | 8 µg/mL | 0.12 µg/mL | –
20 | CC(=O)N1C[C@H]2CC(COC(=O)NCC(F)(F)F)=C(C(=O)O)N3C(=O)[C@@H]1[C@@H]23 [92(a), (1aS,3aR,6bR)-2-Acetyl-1-oxo-5-(2,2,2-trifluoroethylcarbamoyloxymethyl)-1a,2,3,3a,4,6b-hexahydro-1H-2,6a-diazacyclobut[cd]indene-6-carboxylic acid sodium salt] | 4 µg/mL | 2 µg/mL | –
21 | O=C(Cn1nnnc1SCC1=C(C(=O)O)N2C(=O)[C@H]3NC[C@@H](C1)[C@H]32)NCCc1ccccc1 [Example 79, (1aS,3aR,6bR)-1-Oxo-5-[1-(phenethylcarbamoylmethyl)-1H-tetrazol-5-ylsulphanylmethyl]-1a,2,3,3a,4,6b-hexahydro-1H-2,6a-diazacyclobut[cd]indene-6-carboxylic acid trifluoroacetate] | 2 µg/mL | 4 µg/mL | –
